Reference: article PMC4303209, “A novel phosphatidylinositol 3-kinase (PI3K) inhibitor directs a potent FOXO-dependent, p53-independent cell cycle arrest phenotype characterized by the differential induction of a subset of FOXO-regulated genes” (Breast Cancer Research : BCR, 2014)

System: MCF-7 breast cancer cells
Assay: Microarray gene expression analysis (Agilent whole human genome 4 x 44K; compound vs DMSO, LIMMA log2 fold change)
Type: cell-based

## Oc1cccc(-c2nc(N3CCOCC3)c3oc4ncccc4c3n2)c1 [PI-103]
  PRNP log2FC: 0.095
  log2FC: 0.10
Apoptosis genes, Gene 16
  AARS log2FC: -0.158
Apoptosis genes, Gene 25
  ABL1 log2FC: -0.144
Apoptosis genes, Gene 29
  ABR log2FC: -0.279
Apoptosis genes, Gene 81
  ACTN4 log2FC: -0.244
Apoptosis genes, Gene 87
  ACTN1 log2FC: -0.457
Apoptosis genes, Gene 88
  ACTN2 log2FC: 0.074
Apoptosis genes, Gene 89
  ACTN3 log2FC: -0.703
Apoptosis genes, Gene 90
  ACVR1 log2FC: 0.552
Apoptosis genes, Gene 91
  ACVR1B log2FC: -0.214
Apoptosis genes, Gene 100
  ADA log2FC: -0.093
Apoptosis genes, Gene 101
  ADAM8 log2FC: -0.513
Apoptosis genes, Gene 103
  ADAR log2FC: -0.239
Apoptosis genes, Gene 116
  ADCYAP1 log2FC: 0.042
Apoptosis genes, Gene 118
  ADD1 log2FC: -0.173
Apoptosis genes, Gene 133
  ADM log2FC: -0.875
Apoptosis genes, Gene 134
  ADORA1 log2FC: -1.870
Apoptosis genes, Gene 135
  ADORA2A log2FC: -0.109
Apoptosis genes, Gene 153
  ADRB1 log2FC: -0.133
Apoptosis genes, Gene 166
  AES log2FC: -0.056
Apoptosis genes, Gene 183
  AGT log2FC: -0.084
Apoptosis genes, Gene 196
  AHR log2FC: 0.783
Apoptosis genes, Gene 207
  AKT1 log2FC: -0.579
Apoptosis genes, Gene 208
  AKT2 log2FC: -0.406
Apoptosis genes, Gene 220
  ALDH1A3 log2FC: -0.150
Apoptosis genes, Gene 230
  ALDOC log2FC: 0.017
Apoptosis genes, Gene 238
  ALK log2FC: 0.007
Apoptosis genes, Gene 247
  ALOX15B log2FC: -0.00234
Apoptosis genes, Gene 284
  ANGPT1 log2FC: -0.412
Apoptosis genes, Gene 291
  SLC25A4 log2FC: -0.414
Apoptosis genes, Gene 292
  SLC25A5 log2FC: -0.037
Apoptosis genes, Gene 301
  ANXA1 log2FC: 0.803
Apoptosis genes, Gene 307
  ANXA4 log2FC: 0.480
Apoptosis genes, Gene 308
  ANXA5 log2FC: 0.167
Apoptosis genes, Gene 317
  APAF1 log2FC: 0.575
Apoptosis genes, Gene 318
  NUDT2 log2FC: 0.219
Apoptosis genes, Gene 323
  APBB2 log2FC: -0.180
Apoptosis genes, Gene 324
  APC log2FC: 0.150
Apoptosis genes, Gene 330
  BIRC3 log2FC: -0.884
Apoptosis genes, Gene 332
  BIRC5 log2FC: 0.037
Apoptosis genes, Gene 333
  APLP1 log2FC: -0.057
Apoptosis genes, Gene 348
  APOE log2FC: 0.390
Apoptosis genes, Gene 351
  APP log2FC: 0.331
Apoptosis genes, Gene 356
  FASLG log2FC: -0.231
Apoptosis genes, Gene 359
  AQP2 log2FC: -0.010
Apoptosis genes, Gene 367
  AR log2FC: 0.287
Apoptosis genes, Gene 369
  ARAF log2FC: -0.336
Apoptosis genes, Gene 382
  ARF6 log2FC: -0.566
Apoptosis genes, Gene 388
  RHOB log2FC: -0.099
Apoptosis genes, Gene 393
  ARHGAP4 log2FC: 0.173
Apoptosis genes, Gene 396
  ARHGDIA log2FC: -0.904
Apoptosis genes, Gene 409
  ARRB2 log2FC: 0.444
Apoptosis genes, Gene 429
  ASCL1 log2FC: -0.053
Apoptosis genes, Gene 440
  ASNS log2FC: -0.385
Apoptosis genes, Gene 468
  ATF4 log2FC: -0.201
Apoptosis genes, Gene 472
  ATM log2FC: 0.013
Apoptosis genes, Gene 487
  ATP2A1 log2FC: -0.025
Apoptosis genes, Gene 551
  AVP log2FC: -0.317
Apoptosis genes, Gene 558
  AXL log2FC: 0.362
Apoptosis genes, Gene 566
  AZU1 log2FC: 0.048
Apoptosis genes, Gene 572
  BAD log2FC: 0.529
Apoptosis genes, Gene 573
  BAG1 log2FC: 1.113
Apoptosis genes, Gene 578
  BAK1 log2FC: -0.383
Apoptosis genes, Gene 580
  BARD1 log2FC: 0.336
Apoptosis genes, Gene 581
  BAX log2FC: -0.146
Apoptosis genes, Gene 596
  BCL2 log2FC: -0.342
Apoptosis genes, Gene 597
  BCL2A1 log2FC: -0.041
Apoptosis genes, Gene 598
  BCL2L1 log2FC: -0.919
Apoptosis genes, Gene 599
  BCL2L2 log2FC: 0.313
Apoptosis genes, Gene 602
  BCL3 log2FC: -1.077
Apoptosis genes, Gene 604
  BCL6 log2FC: 1.197
Apoptosis genes, Gene 627
  BDNF log2FC: -0.180
Apoptosis genes, Gene 637
  BID log2FC: -0.261
Apoptosis genes, Gene 638
  BIK log2FC: -0.571
Apoptosis genes, Gene 641
  BLM log2FC: 0.071
Apoptosis genes, Gene 652
  BMP4 log2FC: 0.224
Apoptosis genes, Gene 655
  BMP7 log2FC: -0.324
Apoptosis genes, Gene 658
  BMPR1B log2FC: -0.150
Apoptosis genes, Gene 660
  BMX log2FC: 0.041
Apoptosis genes, Gene 662
  BNIP1 log2FC: 0.320
Apoptosis genes, Gene 663
  BNIP2 log2FC: 0.429
Apoptosis genes, Gene 664
  BNIP3 log2FC: 0.757
Apoptosis genes, Gene 665
  BNIP3L log2FC: 1.132
Apoptosis genes, Gene 668
  FOXL2 log2FC: -0.465
Apoptosis genes, Gene 672
  BRCA1 log2FC: 0.741
Apoptosis genes, Gene 673
  BRAF log2FC: 0.018
Apoptosis genes, Gene 675
  BRCA2 log2FC: 0.100
Apoptosis genes, Gene 685
  BTC log2FC: 0.236
Apoptosis genes, Gene 694
  BTG1 log2FC: 1.197
Apoptosis genes, Gene 699
  BUB1 log2FC: 0.591
Apoptosis genes, Gene 701
  BUB1B log2FC: 0.146
Apoptosis genes, Gene 706
  TSPO log2FC: 0.105
Apoptosis genes, Gene 728
  C5AR1 log2FC: 0.079
Apoptosis genes, Gene 773
  CACNA1A log2FC: -0.069
Apoptosis genes, Gene 811
  CALR log2FC: -0.161
Apoptosis genes, Gene 816
  CAMK2B log2FC: 0.010
Apoptosis genes, Gene 831
  CAST log2FC: 0.459
Apoptosis genes, Gene 834
  CASP1 log2FC: 0.025
Apoptosis genes, Gene 835
  CASP2 log2FC: -0.763
Apoptosis genes, Gene 836
  CASP3 log2FC: 0.305
Apoptosis genes, Gene 837
  CASP4 log2FC: 0.021
Apoptosis genes, Gene 838
  CASP5 log2FC: -0.191
Apoptosis genes, Gene 839
  CASP6 log2FC: 0.478
Apoptosis genes, Gene 840
  CASP7 log2FC: -0.335
Apoptosis genes, Gene 841
  CASP8 log2FC: 0.045
Apoptosis genes, Gene 842
  CASP9 log2FC: 0.133
Apoptosis genes, Gene 846
  CASR log2FC: 0.046
Apoptosis genes, Gene 847
  CAT log2FC: 0.456
Apoptosis genes, Gene 857
  CAV1 log2FC: 0.357
Apoptosis genes, Gene 864
  RUNX3 log2FC: -0.359
Apoptosis genes, Gene 867
  CBL log2FC: 0.455
Apoptosis genes, Gene 875
  CBS log2FC: -0.393
Apoptosis genes, Gene 889
  KRIT1 log2FC: 0.580
Apoptosis genes, Gene 900
  CCNG1 log2FC: 0.460
Apoptosis genes, Gene 914
  CD2 log2FC: -0.198
Apoptosis genes, Gene 916
  CD3E log2FC: -0.245
Apoptosis genes, Gene 917
  CD3G log2FC: -0.217
Apoptosis genes, Gene 921
  CD5 log2FC: 0.023
Apoptosis genes, Gene 922
  CD5L log2FC: -0.081
Apoptosis genes, Gene 929
  CD14 log2FC: -0.379
Apoptosis genes, Gene 940
  CD28 log2FC: 0.036
Apoptosis genes, Gene 958
  CD40 log2FC: -0.612
Apoptosis genes, Gene 960
  CD44 log2FC: -0.262
Apoptosis genes, Gene 966
  CD59 log2FC: -0.006
Apoptosis genes, Gene 972
  CD74 log2FC: 0.013
Apoptosis genes, Gene 997
  CDC34 log2FC: 0.509
Apoptosis genes, Gene 998
  CDC42 log2FC: 0.080
Apoptosis genes, Gene 1019
  CDK4 log2FC: 0.170
Apoptosis genes, Gene 1026
  CDKN1A log2FC: -1.229
Apoptosis genes, Gene 1027
  CDKN1B log2FC: 1.116
Apoptosis genes, Gene 1029
  CDKN2A log2FC: 0.303
Apoptosis genes, Gene 1032
  CDKN2D log2FC: 0.903
Apoptosis genes, Gene 1051
  CEBPB log2FC: -0.197
Apoptosis genes, Gene 1072
  CFL1 log2FC: -0.246
Apoptosis genes, Gene 1075
  CTSC log2FC: -0.333
Apoptosis genes, Gene 1082
  CGB log2FC: -0.180
Apoptosis genes, Gene 1191
  CLU log2FC: 0.052
Apoptosis genes, Gene 1201
  CLN3 log2FC: -0.046
Apoptosis genes, Gene 1236
  CCR7 log2FC: 0.113
Apoptosis genes, Gene 1263
  PLK3 log2FC: -1.591
Apoptosis genes, Gene 1268
  CNR1 log2FC: 0.471
Apoptosis genes, Gene 1386
  ATF2 log2FC: 0.878
Apoptosis genes, Gene 1392
  CRH log2FC: 0.059
Apoptosis genes, Gene 1396
  CRIP1 log2FC: 0.723
Apoptosis genes, Gene 1409
  CRYAA log2FC: -0.050
Apoptosis genes, Gene 1410
  CRYAB log2FC: -0.029
Apoptosis genes, Gene 1432
  MAPK14 log2FC: -0.303
Apoptosis genes, Gene 1434
  CSE1L log2FC: 0.551
Apoptosis genes, Gene 1437
  CSF2 log2FC: -0.616
Apoptosis genes, Gene 1457
  CSNK2A1 log2FC: -0.647
Apoptosis genes, Gene 1459
  CSNK2A2 log2FC: 0.329
Apoptosis genes, Gene 1476
  CSTB log2FC: 0.261
Apoptosis genes, Gene 1482
  NKX2-5 log2FC: -0.572
Apoptosis genes, Gene 1490
  CTGF log2FC: -0.354
Apoptosis genes, Gene 1491
  CTH log2FC: 0.722
